# Results taken from patent US7371741B2, “Estradiol derivatives and pharmaceutical compositions using same” (EntreMed, Inc., priority 2003, dated 2008).
# Columns and labels:
# Assay type in all cases: cell-based
# U87-MG: glioblastoma = assay: In vitro anti-proliferative activity, BrdU incorporation, U87-MG; details: U87-MG cells, 50% inhibition of proliferation, BrdU incorporation into DNA
# Experimental: (§1) Determination of in vitro anti-proliferative activity of substituted estradiol analogs: In vitro anti-proliferative or anti-mitogenic activity was determined using a commercially available cell-based assay in 96-well tissue culture plates with assessment of proliferation by evaluating DNA synthesis through incorporation into DNA of immuno-reactive (BrdU) nucleotides. The cell types used are commercially available (MDA-MB-231: breast cancer; U87-MG: glioblastoma; PC3: prostate cancer; HUVEC: non-transformed early passage human umbilical vein endothelial cells). These assays, and the many assay variations possible to determine in vitro anti-proliferative or anti-mitogenic activity, are well known to those skilled in the art. The concentration which causes 50% inhibition of proliferation (IC50) was estimated from a dose-response curve generally carried out with a range of concentrations from ≧100 microg/mL to ≦0.01 microg/mL.
# PC3: prostate cancer = assay: In vitro anti-proliferative activity, BrdU incorporation, PC3; details: PC3 cells, 50% inhibition of proliferation, BrdU incorporation into DNA
# Experimental: as §1
# [1] = test system: HUVEC: non-transformed early passage human umbilical vein endothelial cells; assay: In vitro anti-proliferative activity, BrdU incorporation, HUVEC; details: 50% inhibition of proliferation, BrdU incorporation into DNA
# Experimental: as §1
# [2] = test system: MDA-MB-231: breast cancer; assay: In vitro anti-proliferative activity, BrdU incorporation, MDA-MB-231; details: MDA-MB-231 cells, 50% inhibition of proliferation, BrdU incorporation into DNA
# Experimental: as §1
IC50 (U87-MG: glioblastoma) [nM],IC50 (PC3: prostate cancer) [nM],IC50 [2] [nM],SMILES,"IC50 (U87-MG: glioblastoma; Homo sapiens, U-87 MG) [nM]","IC50 (PC3: prostate cancer; Homo sapiens, PC-3) [nM]",IC50 ([1]; Homo sapiens) [nM],IC50 ([2]; Homo sapiens) [nM],IC50 [1] [nM]
–,–,–,"COc1cc2c(cc1F)CC[C@@H]1[C@@H]2CC[C@]2(C)C(=O)CC[C@@H]12 [Compound 40, 3-fluoro-2-methoxyestra-1,3,5(10)-trien-17-one]",26000 ± 3380,9260 ± 730,2100 ± 230,2940 ± 800,–
640 ± 90,660 ± 50,580 ± 20,"CC=C1CC[C@H]2[C@@H]3CCc4cc(OS(N)(=O)=O)c(OC)cc4[C@H]3CC[C@]12C [Compound 94, 3-sulfamate-17-ethylene-2-methoxyestra-1,3,5(10)-triene]",–,–,–,–,590
–,–,–,"CCOc1cc2c(cc1O)CC[C@@H]1[C@@H]2CC[C@]2(C)C(O)CC[C@@H]12 (stereo partly shown) [Compound 2, 2-Ethoxyestra-1,3,5(10)-trien-3,17-diol]",–,–,140 ± 70,650 ± 230,–
–,–,–,"CCOc1cc2c(cc1N)CC[C@@H]1[C@@H]2CC[C@]2(C)C(=O)CC[C@@H]12 [Compound 35, 3-Amino-2-ethoxyestra-1,3,5(10)-trien-17-one]",26000 ± 1400,9250 ± 1580,16500 ± 2020,10600 ± 2980,–
–,–,580 ± 310,"C=C1CC[C@H]2[C@@H]3CCc4cc(O)c(OC)cc4[C@H]3CC[C@]12C [Compound 10, 2-methoxy-17(20)-methyleneestra-1,3,5(10)-triene-3-ol]",–,–,–,–,260 ± 230
6410,830,1550 ± 390,"CCOc1cc2c(cc1OS(N)(=O)=O)CC[C@@H]1[C@@H]2CC[C@]2(C)C(C)CC[C@@H]12 (stereo partly shown) [Compound 119, 3-sulfamate-17-methyl-2-ethoxyestra-1,3,5(10)-triene]",–,–,–,–,910 ± 90
–,–,–,"COc1cc2c(cc1N)CC[C@@H]1[C@@H]2CC[C@]2(C)C(C)CC[C@@H]12 (stereo partly shown) [Compound 133, 3-amino-17-methyl-2-methoxyestra-1,3,5(10)-triene]",14870 ± 10,7160 ± 1420,2650 ± 770,7310 ± 580,–
–,–,–,"C=C1CC[C@H]2[C@@H]3CCc4cc(N)c(OC)cc4[C@H]3CC[C@]12C [Compound 85, 3-amino-17-methylene-2-methoxyestra-1,3,5(10)-triene]",5510 ± 460,2400 ± 390,1000 ± 190,2110 ± 570,–
–,–,–,"COc1cc2c(cc1O)CC[C@@H]1[C@@H]2CC[C@]2(C)C(=O)CC[C@@H]12 [Compound 4, 2-methoxyestra-1,3,5(10)-trien-3-ol-17-one, reference compound]",10500,13700,12600,11700,–
–,–,–,"C=C1CC[C@H]2[C@@H]3CCc4cc(N)c(OCC)cc4[C@H]3CC[C@]12C [Compound 86, 3-amino-17-methylene-2-ethoxyestra-1,3,5(10)-triene]",7290 ± 2260,2750 ± 220,2310 ± 50,2130 ± 120,–
2370 ± 340,1150 ± 400,2630 ± 200,"CC=C1CCC2C3CCc4cc(O)c(OC)cc4C3CCC12C (stereo not shown) [Compound 13, 2-Methoxy-19-norpregna-1,3,5(10)17(20)-tetraene-3-ol]",–,–,–,–,370 ± 80
2350 ± 410,920 ± 110,1940 ± 270,"CC=C1CC[C@H]2[C@@H]3CCc4cc(N)c(OC)cc4[C@H]3CC[C@]12C [Compound 109, 3-amino-17-ethylene-2-methoxyestra-1,3,5(10)-triene]",–,–,–,–,720 ± 100
640 ± 10,820 ± 60,660 ± 100,"COc1cc2c(cc1OS(N)(=O)=O)CC[C@@H]1[C@@H]2CC[C@]2(C)C(C)CC[C@@H]12 (stereo partly shown) [Compound 118, 3-sulfamate-17-methyl-2-methoxyestra-1,3,5(10)-triene]",–,–,–,–,590 ± 100
–,–,–,"COc1cc2c(cc1N)CC[C@@H]1[C@@H]2CC[C@]2(C)C(=O)CC[C@@H]12 [Compound 34, 3-amino-2-methoxyestra-1,3,5(10)-trien-17-one]",81500 ± 20400,> 100000,23400 ± 4140,46900 ± 8150,–
4520 ± 1300,2580 ± 360,5230 ± 1950,"COc1cc2c(cc1C(N)=O)CC[C@@H]1[C@@H]2CC[C@]2(C)CCC[C@@H]12 [Compound 58, (2-Methoxyestra-1,3,5(10)-trien-3-yl)-3-carboxamide]",–,–,–,–,1420 ± 410
> 100000,> 100000,> 100000,"C=C1CC[C@H]2[C@@H]3CCc4cc(OS(=O)(=O)C(F)(F)F)c(OC)cc4[C@H]3CC[C@]12C [Compound 73, 3-triflic-17-methylene-2-methoxyestra-1,3,5(10)-triene]",–,–,–,–,> 100000
720 ± 40,380 ± 210,380 ± 150,"COc1cc2c(cc1OS(N)(=O)=O)CC[C@@H]1[C@@H]2CC[C@]2(C)CCC[C@@H]12 [Compound 46, 3-sulfamate-2-methoxyestra-1,3,5(10)-triene]",–,–,–,–,210 ± 150
1070 ± 150,700 ± 30,700 ± 120,"COc1cc2c(cc1C(N)=O)CC[C@@H]1[C@@H]2CC[C@]2(C)C(=O)CC[C@@H]12 [Compound 31, 2-methoxy-3-carboxamideestra-1,3,5(10)-triene-17-one]",–,–,–,–,790 ± 200
–,–,–,"C=Cc1cc2c(cc1OC)[C@H]1CC[C@]3(C)[C@@H](O)CC[C@H]3[C@@H]1CC2 [Compound 25a, 2-methoxy-3-(vinyl)estra-1,3,5(10)-triene-17β-ol]",7810 ± 1300,6340 ± 80,1960 ± 50,8930 ± 610,–
–,–,–,"C=C1CC[C@H]2[C@@H]3CCc4cc(C(N)=O)c(OC)cc4[C@H]3CC[C@]12C [Compound 82, 2-Methoxy-17-methyleneestra-1,3,5(10)-triene-3-carboxamide]",250 ± 20,250 ± 10,120 ± 60,190 ± 80,–

SMILES,IC50 (U87-MG: glioblastoma) [nM],IC50 (PC3: prostate cancer) [nM],IC50 [2] [nM],"IC50 (U87-MG: glioblastoma; Homo sapiens, U-87 MG) [nM]","IC50 (PC3: prostate cancer; Homo sapiens, PC-3) [nM]",IC50 ([1]; Homo sapiens) [nM],IC50 ([2]; Homo sapiens) [nM],IC50 [1] [nM]
"CCOc1cc2c(cc1OS(N)(=O)=O)CC[C@@H]1[C@@H]2CC[C@]2(C)C(=O)CC[C@@H]12 [Compound 20, 3-sulfamate-2-ethoxyestra-1,3,5(10)-trien-17-one]",19800 ± 2320,8930 ± 610,7520 ± 2040,–,–,–,–,2590 ± 250
"COc1cc2c(cc1NC=O)CC[C@@H]1[C@@H]2CC[C@]2(C)C(O)CC[C@@H]12 (stereo partly shown) [Compound 43, 3-Formamide-2-methoxyestra-1,3-5(10)-trien-17-ol]",2700 ± 220,1340 ± 20,780 ± 10,–,–,–,–,70 ± 20
"C=C1CC[C@H]2[C@@H]3CCc4cc(NC=O)c(OC)cc4[C@H]3CC[C@]12C [Compound 88, 3-formamide-17-methylene-2-methoxyestra-1,3,5(10)-triene]",530 ± 240,240 ± 60,300 ± 80,–,–,–,–,220 ± 30
"COc1cc2c(cc1NC=O)CC[C@@H]1[C@@H]2CC[C@]2(C)C(C)CC[C@@H]12 (stereo partly shown) [Compound 136, 3-formamide-17-methyl-2-methoxyestra-1,3,5(10)-triene]",640 ± 10,700 ± 100,610,–,–,–,–,590
"COc1cc2c(cc1NC=O)CC[C@@H]1[C@@H]2CC[C@]2(C)CCC[C@@H]12 [Compound 64, 3-formamide-2-methoxyestra-1,3,5(10)-triene]",23200 ± 2000,9240 ± 590,8290 ± 1640,–,–,–,–,5800 ± 730
"COc1cc2c(cc1OS(N)(=O)=O)CC[C@@H]1[C@@H]2CC[C@]2(C)C(=O)CC[C@@H]12 [Compound 19, 3-sulfamate-2-methoxyestra-1,3,5(10)-trien-17-one]",800 ± 230,510 ± 240,600 ± 430,–,–,–,–,180 ± 40
